Like-named read-outs stand apart in the source and are kept apart here.
What was measured:
[1] = tested on: advanced stage/recurrent endometrial cancer; conditions: advanced stage / metastatic and recurrent endometrial cancer patients, cited from earlier work
[2] = tested on: p-STAT3, p-AKT, p-ERK and ER-α; experiment: Western blot of cell signaling molecules in HEC-1A cells; assay type: cell-based, Human; conditions: 24 h, single agents at various concentrations, combination 75 μM each
Procedure: (§1) Western blot analysis. Western blots were performed as described previously^55,56 Cells were grown in complete medium overnight and treated with DMSO or drugs at various concentrations for 24 hrs. Cells were washed in cold PBS and lysed in RIPA lysis buffer (Thermo Scientific) containing Halt protease and phosphatase inhibitors (Thermo Scientific). Proteins were quantified using BCA protein assay reagent (Thermo Scientific). Equal amounts of protein were separated by SDS-polyacrylamide gel electrophoresis, transferred to polyvinylidene fluoride membranes and incubated with total and phosphorylated protein-specific antibodies. Binding of the primary antibody was detected using a horseradish peroxidase (HRP)-conjugated secondary antibody and chemiluminescent substrates (Thermo Scientific).

[3] = tested on: cell survival molecules and cell cycle molecules (caspase 3, PARP, BCL-2, BCL-xl, cyclin D1, cyclin B1, CDK4); experiment: Western blot of cell survival and cell cycle molecules in HEC-1A cells; assay type: cell-based, Human; conditions: 24 h, single agents at various concentrations, combination 75 μM each
Procedure: as §1

[4] = tested on: HEC-1A xenograft; experiment: HEC-1A xenograft mouse model; assay type: in vivo, nude mice; conditions: oral gavage daily, 5 weeks; Pterostilbene 30 mg/kg, megestrol acetate 10 mg/kg, or both; versus vehicle
Procedure: Animal models. All animal studies were carried out under protocols approved by the Institutional Animal Care and Use Committee (IACUC) at City of Hope in accordance with all applicable federal, state, and local requirements and institutional guidelines. HEC-1A cells (2×10^6 in 100 μl) were inoculated subcutaneously into the right flank of 6- to 8-week-old female nude mice. Once the tumors were palpable, animals were randomized into groups of 10 to achieve an equal distribution of tumor sizes in all treatment groups. Mice were then treated by oral gavage daily with vehicle, Pterostilbene (30 mg/kg), megestrol acetate (10 mg/kg), or a combination of both agents. The doses for these two drugs were chosen based on previously published studies. Tumor volumes were assessed using calipers twice a week. Tumor volumes were determined using the formula (Width)^2×Length×0.52. Body weight was monitored weekly as an indicator of drug-induced toxicity and overall health of the mice.
Statistical analysis. Data are presented as mean±S.D. Student's t-test was used to compare the means of two groups. All the experiments were repeated 2 to 4 times. P<0.05 was considered statistically significant.

[5] = recent clinical trial; cited from earlier work
[6] = tested on: HEC-1A cells; experiment: Cell viability assay (MTS / acid phosphatase), combination index by Chou-Talalay; assay type: cell-based; conditions: Homo sapiens, read-out: IC50 (concentration for 50% growth inhibition), pterostilbene alone, 48 h, one range printed for both cell lines
Procedure: (§2) Cell Culture. Human endometrial cancer cell lines HEC-1A and ECC-1 cells were from American Type Culture Collection (Rockville, Md.). […] All cells were grown in 5% (v/v) CO2 at 37° C.
(§3) Cell viability assays. Cells (4000 per well) were plated in 96-well plate format in 100 μl growth medium. Cells were treated with DMSO or drugs the next day at the indicated concentrations and incubated for an additional 2-3 days. Viable cells were determined either by the MTS assay (Promega, Madison, Wis., USA) or the acid phosphatase assay^53,54. For the MTS assay, 25 μl MTS solution was added directly into each well according to the manufacturer's instructions. For the acid phosphatase assay, all the media was removed and p-nitrophenyl phosphate substrate (10 mM 100 μl) was added into each well and incubated at 37° C. for 45 mins. […] The IC50 was determined using the Calcusyn software (Biosoft, Ferguson, Mo.).
(§4) Determination of combination index (CI). The combination index (CI) was determined using the Chou-Talalay method^37 using the Calcusyn software (Biosoft, MO).

[7] = tested on: ECC-1 cells; experiment: as above; assay type: cell-based; conditions: Homo sapiens, ECC-1, read-out: IC50 (concentration for 50% growth inhibition), pterostilbene alone, 48 h, one range printed for both cell lines
Procedure: as §2, §3, §4

[8] = compared to Resveratrol; cited from earlier work

Row | Compound | Response rate [1] | Response rate ([1]; listed as MA) | ER expression [2] | Expression of p-ERK1/2 [2] | Expression of p-STAT3 and p-AKT [2] | Cleavage of caspase 3 [3] | Expression of BCL-2 and BCL-xl [3] | Expression of cyclin D1, cyclin B1 and CDK4 [3] | Tumor growth reduction (tumor volume and tumor weight) [4] | Dose generally safe for use in humans [5] | IC50 [6] [µM] | IC50 [7] [µM] | Bioavailability [8]
1 | megestrol acetate [reference compound] | 20-30% | 25-30% | did not significantly alter | did not significantly alter | did not significantly alter | little effect | little effect | little impact | non-significant |  |  |  | 
2 | COc1cc(/C=C/c2ccc(O)cc2)cc(OC)c1 [pterostilbene] |  |  | slightly decreased | no significant effect | no significant effect | increased cleavage | decrease | inhibited | non-significant | up to 250 mg/day | 72 to 78 | 72 to 78 | superior bioavailability as compared to Resveratrol

Source: patent publication US11389460B2, “Methods and compositions for treating endometrial cancer” (City of Hope, priority 2017, dated 2022)
